The source of these data is the NIST ThermoML archive (doi:10.1021/je101008y).

The series is described as follows: activity coefficient (dimensionless); of the first substance listed, at infinite dilution; xn = mol fraction of the nth substance listed. Conditions: Liquid, Chromatography, x1 = 0.

Structures are written as SMILES. ± gives the expanded uncertainty stated by the source.

For the molecule `c1ccccc1` [benzene] + CCCC[N+]1(C)CCCCC1.N#C[S-], the activity coefficient reads like this: (318.15 K) 1.9 ± 0.13; (328.15 K) 1.92 ± 0.13; (338.15 K) 1.95 ± 0.13; (348.15 K) 1.97 ± 0.13; (358.15 K) 1.99 ± 0.14.

In the case of `Cc1ccccc1` [toluene] + CCCC[N+]1(C)CCCCC1.N#C[S-], the activity coefficient runs as follows: (318.15 K) 3.14 ± 0.21; (328.15 K) 3.16 ± 0.22; (338.15 K) 3.19 ± 0.22; (348.15 K) 3.21 ± 0.22; (358.15 K) 3.23 ± 0.22.

`CCCOCCC` [dipropyl ether] + CCCC[N+]1(C)CCCCC1.N#C[S-]: the activity coefficient amounted to 35.1 ± 2.4 (318.2 K); 32.9 ± 2.3 (328.2 K); 31 ± 2.1 (338.2 K); 29.3 ± 2 (348.2 K); 28 ± 1.9 (358.2 K).

Take `C#CCCCC` [1-hexyne] + CCCC[N+]1(C)CCCCC1.N#C[S-]: the activity coefficient is, setting by setting: (318.15 K) 6.07 ± 0.41; (328.15 K) 6.11 ± 0.42; (338.15 K) 6.16 ± 0.42; (348.15 K) 6.19 ± 0.42; (358.15 K) 6.22 ± 0.42.

On to `C=CCCCCC` [1-heptene] + CCCC[N+]1(C)CCCCC1.N#C[S-], for which the activity coefficient was 60.3 ± 4.1 (318.15 K); 55.5 ± 3.8 (328.15 K); 51.7 ± 3.5 (338.15 K); 47.9 ± 3.3 (348.15 K); 45.7 ± 3.1 (358.15 K).

As for `CCCCCCC` [heptane] + CCCC[N+]1(C)CCCCC1.N#C[S-], the activity coefficient (318.15 K) amounted to 170 ± 12; the activity coefficient (328.15 K) was found to be 142 ± 10; the activity coefficient (338.15 K) was 127 ± 9; the activity coefficient (348.15 K) stood at 111 ± 8; the activity coefficient (358.15 K) was 102 ± 7.

In the case of `C#CCCCCCC` [1-octyne] + CCCC[N+]1(C)CCCCC1.N#C[S-], the activity coefficient runs as follows: (318.15 K) 13.6 ± 0.9; (328.15 K) 13.6 ± 0.9; (338.15 K) 13.6 ± 0.9; (348.15 K) 13.7 ± 0.9; (358.15 K) 13.7 ± 0.9.

Turning to `CC(C)=O` [acetone] + CCCC[N+]1(C)CCCCC1.N#C[S-], the activity coefficient (318.2 K) was determined as 1.52 ± 0.1; the activity coefficient (328.2 K) amounted to 1.52 ± 0.1; the activity coefficient (338.2 K) stood at 1.53 ± 0.1; the activity coefficient (348.2 K) stood at 1.54 ± 0.1; the activity coefficient (358.2 K) turned out to be 1.55 ± 0.1.

As to `Cc1cccc(C)c1` [1,3-dimethylbenzene] + CCCC[N+]1(C)CCCCC1.N#C[S-], the activity coefficient runs as follows: (318.15 K) 5.23 ± 0.36; (328.15 K) 5.25 ± 0.36; (338.15 K) 5.26 ± 0.36; (348.15 K) 5.27 ± 0.36; (358.15 K) 5.28 ± 0.36.

Consider `c1ccsc1` [thiophene] + CCCC[N+]1(C)CCCCC1.N#C[S-], for which the activity coefficient was 1.1 ± 0.07 (318.15 K); 1.13 ± 0.07 (328.15 K); 1.17 ± 0.07 (338.15 K); 1.2 ± 0.08 (348.15 K); 1.23 ± 0.08 (358.15 K).

As to `CCO` [ethanol] + CCCC[N+]1(C)CCCCC1.N#C[S-], the activity coefficient by setting is: (318.15 K) 0.647 ± 0.044; (328.15 K) 0.637 ± 0.044; (338.15 K) 0.627 ± 0.043; (348.15 K) 0.618 ± 0.043; (358.15 K) 0.612 ± 0.043.

`CO` [methanol] + CCCC[N+]1(C)CCCCC1.N#C[S-]: the activity coefficient by setting is: (318.15 K) 0.366 ± 0.033; (328.15 K) 0.368 ± 0.033; (338.15 K) 0.37 ± 0.033; (348.15 K) 0.371 ± 0.033; (358.15 K) 0.373 ± 0.033.

Turning to `C1CCCCC1` [cyclohexane] + CCCC[N+]1(C)CCCCC1.N#C[S-], the activity coefficient is 39.8 ± 2.7 (318.15 K); 35.9 ± 2.5 (328.15 K); 32.4 ± 2.2 (338.15 K); 29.4 ± 2 (348.15 K); 27.5 ± 1.9 (358.15 K).

With `CCOCC` [diethyl ether] + CCCC[N+]1(C)CCCCC1.N#C[S-], the activity coefficient reads like this: (318.2 K) 12 ± 0.8; (328.2 K) 11.6 ± 0.8; (338.2 K) 11.1 ± 0.8; (348.2 K) 10.8 ± 0.7; (358.2 K) 10.5 ± 0.7.

`CCC(=O)CC` [pentan-3-one] + CCCC[N+]1(C)CCCCC1.N#C[S-]: the activity coefficient reads like this: (318.2 K) 3.08 ± 0.21; (328.2 K) 3.09 ± 0.21; (338.2 K) 3.11 ± 0.21; (348.2 K) 3.12 ± 0.21; (358.2 K) 3.13 ± 0.21.

For `CCCC(C)=O` [pentan-2-one] + CCCC[N+]1(C)CCCCC1.N#C[S-], the activity coefficient is 3.07 ± 0.21 (318.2 K); 3.08 ± 0.21 (328.2 K); 3.09 ± 0.21 (338.2 K); 3.11 ± 0.21 (348.2 K); 3.12 ± 0.21 (358.2 K).

On to `COC(C)(C)C` [2-methoxy-2-methylpropane] + CCCC[N+]1(C)CCCCC1.N#C[S-], for which the activity coefficient (318.2 K) was determined as 13.1 ± 0.9; the activity coefficient (328.2 K) was 12.7 ± 0.9; the activity coefficient (338.2 K) was 12.4 ± 0.8; the activity coefficient (348.2 K) turned out to be 12 ± 0.8; the activity coefficient (358.2 K) worked out at 11.8 ± 0.8.

`CCCCCCCCCC` [decane] + CCCC[N+]1(C)CCCCC1.N#C[S-]: the activity coefficient stood at 487 ± 34 (318.15 K); 433 ± 30 (328.15 K); 390 ± 27 (338.15 K); 342 ± 24 (348.15 K); 311 ± 21 (358.15 K).

As for `C=CCCCCCC` [oct-1-ene] + CCCC[N+]1(C)CCCCC1.N#C[S-], the activity coefficient by setting is: (318.15 K) 90.6 ± 6.2; (328.15 K) 83.7 ± 5.7; (338.15 K) 77.4 ± 5.3; (348.15 K) 71.5 ± 4.9; (358.15 K) 67.4 ± 4.6.

With `C1CCCCCC1` [cycloheptane] + CCCC[N+]1(C)CCCCC1.N#C[S-], the activity coefficient (318.15 K) turned out to be 44.3 ± 3; the activity coefficient (328.15 K) is 41.5 ± 2.8; the activity coefficient (338.15 K) turned out to be 37.4 ± 2.6; the activity coefficient (348.15 K) amounted to 34.6 ± 2.4; the activity coefficient (358.15 K) was found to be 32.7 ± 2.2.

For `C=CCCCC` [hex-1-ene] + CCCC[N+]1(C)CCCCC1.N#C[S-], the activity coefficient came to 41.3 ± 2.8 (318.15 K); 37 ± 3 (328.15 K); 34.6 ± 2.4 (338.15 K); 32 ± 2 (348.15 K); 30.1 ± 2.1 (358.15 K).

Take `C#CCCCCC` [1-heptyne] + CCCC[N+]1(C)CCCCC1.N#C[S-]: the activity coefficient reads like this: (318.15 K) 9.17 ± 0.63; (328.15 K) 9.19 ± 0.63; (338.15 K) 9.2 ± 0.6; (348.15 K) 9.23 ± 0.63; (358.15 K) 9.28 ± 0.63.

Turning to `CCc1ccccc1` [ethylbenzene] + CCCC[N+]1(C)CCCCC1.N#C[S-], the activity coefficient was 5.18 ± 0.35 (318.15 K); 5.18 ± 0.35 (328.15 K); 5.16 ± 0.35 (338.15 K); 5.15 ± 0.35 (348.15 K); 5.14 ± 0.35 (358.15 K).

With `C1CCCCCCC1` [cyclooctane] + CCCC[N+]1(C)CCCCC1.N#C[S-], the activity coefficient reads like this: (318.15 K) 60 ± 4; (328.15 K) 54 ± 4; (338.15 K) 49.1 ± 3.4; (348.15 K) 44.7 ± 3.1; (358.15 K) 42.1 ± 2.9.

For the molecule `Cc1ccccc1C` [1,2-dimethylbenzene] + CCCC[N+]1(C)CCCCC1.N#C[S-], the activity coefficient (318.15 K) came out at 4.15 ± 0.28; the activity coefficient (328.15 K) came to 4.18 ± 0.28; the activity coefficient (338.15 K) is 4.21 ± 0.29; the activity coefficient (348.15 K) amounted to 4.24 ± 0.29; the activity coefficient (358.15 K) amounted to 4.26 ± 0.29.

As to `C1CCCC1` [cyclopentane] + CCCC[N+]1(C)CCCCC1.N#C[S-], the activity coefficient came to 27.5 ± 1.9 (318.15 K); 24.2 ± 1.7 (328.15 K); 22.1 ± 1.5 (338.15 K); 19.9 ± 1.4 (348.15 K); 18.9 ± 1.3 (358.15 K).

Take `Cc1ccc(C)cc1` [1,4-dimethylbenzene] + CCCC[N+]1(C)CCCCC1.N#C[S-]: the activity coefficient runs as follows: (318.15 K) 5.01 ± 0.34; (328.15 K) 5.04 ± 0.34; (338.15 K) 5.07 ± 0.35; (348.15 K) 5.1 ± 0.35; (358.15 K) 5.13 ± 0.35.

For `CCCCCCCCC` [nonane] + CCCC[N+]1(C)CCCCC1.N#C[S-], the activity coefficient by setting is: (318.15 K) 333 ± 23; (328.15 K) 293 ± 20; (338.15 K) 267 ± 18; (348.15 K) 234 ± 16; (358.15 K) 214 ± 15.

For `O` [water] + CCCC[N+]1(C)CCCCC1.N#C[S-], the activity coefficient (328.15 K) turned out to be 0.332 ± 0.032, the activity coefficient (338.15 K) was determined as 0.337 ± 0.032, the activity coefficient (348.15 K) stood at 0.342 ± 0.032 and the activity coefficient (358.15 K) came out at 0.348 ± 0.032.

Take `C1CCOC1` [tetrahydrofuran] + CCCC[N+]1(C)CCCCC1.N#C[S-]: the activity coefficient (318.15 K) was 2.28 ± 0.16; the activity coefficient (328.15 K) came to 2.31 ± 0.16; the activity coefficient (338.15 K) stood at 2.34 ± 0.16; the activity coefficient (348.15 K) was determined as 2.36 ± 0.16; the activity coefficient (358.15 K) is 2.38 ± 0.16.

As for `CCCCCCCC` [octane] + CCCC[N+]1(C)CCCCC1.N#C[S-], the activity coefficient runs as follows: (318.15 K) 236 ± 16; (328.15 K) 206 ± 14; (338.15 K) 185 ± 13; (348.15 K) 161 ± 11; (358.15 K) 150 ± 10.

Regarding `CCCCCC` [hexane] + CCCC[N+]1(C)CCCCC1.N#C[S-], the activity coefficient by setting is: (318.15 K) 124 ± 9; (328.15 K) 104 ± 7; (338.15 K) 89.3 ± 6.1; (348.15 K) 78.5 ± 5.4; (358.15 K) 68.5 ± 4.7.
